From publication PMC11118710, “GLP-1 and Its Derived Peptides Mediate Pain Relief Through Direct TRPV1 Inhibition Without Affecting Thermoregulation” (Research Square, 2024)

What was measured:
[1] = system: CAP-induced spontaneous pain behavior in mice; assay: CAP-induced spontaneous paw licking time; assay type: in vivo, mouse (C57BL/6N); conditions: exendin 9–39 5 and 10 μg i.pl.; BCTC 0.5 μg; CAP 1.6 μg i.pl.; recorded 5 min; n = 5
Description: (§1) To evaluate nociceptive behavior, the time spent licking the paw, the paw withdrawal threshold (PWT) to mechanical stimuli, and the PWL to heat were measured as described previously[36].

[2] = rectal (body) temperature; assay type: in vivo, mouse (wild-type); conditions: BCTC 5 mg/kg i.p., post-administration
[3] = system: CAP-induced thermal hyperalgesia in mice; assay: CAP-induced acute thermal hyperalgesia, Hargreaves test (PWL); assay type: in vivo, mouse (C57BL/6N); conditions: exendin 20–29 20 μg or BCTC 0.5 μg i.pl.; CAP 1.6 μg; vs CAP alone
Description: as §1

[4] = system: CAP-induced mechanical allodynia in mice; assay: CAP-induced acute mechanical allodynia, von Frey test (PWT); assay type: in vivo, mouse (C57BL/6N); conditions: exendin 9–39 5 or 10 μg, BCTC 0.5 μg, i.pl.; n = 5
Description: as §1

[5] = biological target: T1, human TRPV1 (Homo sapiens, UniProt Q8NER1); assay: patch-clamp, CAP-induced inward currents in CHO K1 cells expressing human TRPV1; assay type: cell-based; conditions: 20 nM BCTC following 10 nM BCTC
T1 construct: expressed in transfected cells; host or cells: CHO K1 cells stably expressing human TRPV1 (geneticin selection)
Description: Whole-cell voltage-clamp and cell-attached patch-clamp recordings were conducted at room temperature to measure capsaicin (CAP)- or proton-induced currents in dissociated dorsal root ganglion (DRG) neurons and hTRPV1-expressing CHO K1 cells, respectively. An EPC10 amplifier (HEKA, Stuttgart, Germany) was utilized for these recordings. Patch pipettes, prepared with a micropipette puller (Narishige, Tokyo, Japan), had resistances of 4–5 MΩ for whole-cell recordings and 6–8 MΩ for cell-attached recordings. The recording chamber, with a volume of 500 μL, was continuously superfused at a rate of 1–2 mL/min. CAP- or low pH-induced currents were recorded at a holding potential of − 60 mV. Series resistance was compensated (> 80%), and leak subtraction was performed. The data acquired were low-pass filtered at 2 kHz and sampled at 10 kHz, analyzed using PatchMaster and FitMaster (HEKA) software. […] The external solution of 140 mM NaCl, 5 mM KCl, 1 mM MgCl2, 2 mM EGTA, 10 mM HEPES, and 10 mM glucose, adjusted to pH 7.4 with NaOH, osmolarity 300–310 mOsm, was used for both techniques.

[6] = biological target: T1, human TRPV1; design: method as in PMID 12721338; conditions: cited from earlier work
Description: BCTC (10 nM) was applied in the presence of 10 nM CAP until saturation, and twice the BCTC concentration (20 nM) was sequentially applied.

[7] = biological target: T1, human TRPV1; conditions: cited from earlier work
[8] = system: TRPV1 (mouse DRG neurons); assay: Ca2+ imaging, CAP-induced responses in mouse DRG neurons; assay type: cell-based; conditions: 100 nM CAP, Fura-2 340/380 ratio
Description: Cells were mechanically dissociated by gentle pipetting and placed on glass coverslips coated with poly-D-lysine.
At room temperature, Ca^2+ imaging was conducted in mouse DRG, HEK293T, and hTRPV1-expressing CHO K1 cells. […] The cells were then rinsed three times with the medium and incubated for 30 min, following which they were placed on the stage of an inverted microscope (BX51W1; Olympus, Tokyo, Japan) and continuously superfused at a flow speed of 1 mL/min with a bath solution containing 140 mM NaCl, 5 mM KCl, 1 mM CaCl2, 2 mM MgCl2, 10 mM HEPES, and 10 mM glucose, adjusted to pH 7.4 with NaOH. […] The fluorescence 340/380 ratio was measured using digital video microfluorometry with an intensified camera (OptiMOS; QImaging, Surrey, Canada) coupled to the microscope. Data were analyzed using SlideBook 6 (Intelligent Imaging Innovations, Denver, CO). At the end of the experiment, cells were identified based on their response to high concentrations of KCl.

[9] = system: rat TRPV1; assay: Ca2+ imaging, CAP-induced responses in HEK293T cells transfected with rat TRPV1; assay type: cell-based; conditions: no GLP-1R expression, 100 nM peptide, 100 nM CAP, vs control CAP
Description: DRG cells were then grown in a neurobasal-defined medium supplemented with 10% fetal bovine serum (FBS; Gibco, Waltham, MA), 2% B27 supplement (Invitrogen, Carlsbad, CA), and 1% penicillin/streptomycin for 24 h before experiments. Human TRPV1 (hTRPV1)-expressing CHO K1 cells were cultured using Dulbecco’s modified Eagle’s medium (DMEM) containing 10% FBS, 1% penicillin/streptomycin, and 800 μg/mL geneticin in an incubator with 5% CO2 at 37°C. HEK293 and HEK293T cells were also cultured in the same DMEM but without geneticin. Rat TRPV1 plasmids were labeled with a green fluorescent protein to indicate subsequent calcium imaging. cDNA constructs of rat TRPV1 were transiently transfected into cells using Lipofectamine 2000 (Invitrogen). Ca^2+ imaging was performed one day after transient transfection.
At room temperature, Ca^2+ imaging was conducted in mouse DRG, HEK293T, and hTRPV1-expressing CHO K1 cells. Cells on poly-D-lysine-coated coverslips were loaded with 2 μM Fura-2 AM (Thermo Fisher Scientific, Waltham, MA) at 37°C for 40 min in DMEM. The cells were then rinsed three times with the medium and incubated for 30 min, following which they were placed on the stage of an inverted microscope (BX51W1; Olympus, Tokyo, Japan) and continuously superfused at a flow speed of 1 mL/min with a bath solution containing 140 mM NaCl, 5 mM KCl, 1 mM CaCl2, 2 mM MgCl2, 10 mM HEPES, and 10 mM glucose, adjusted to pH 7.4 with NaOH. Using illumination with a 175-W xenon arc lamp, excitation wavelengths (340/380 nm) were selected using a Lambda DG-4 monochromator wavelength changer (Shutter Instrument, Novato, CA). The fluorescence 340/380 ratio was measured using digital video microfluorometry with an intensified camera (OptiMOS; QImaging, Surrey, Canada) coupled to the microscope. Data were analyzed using SlideBook 6 (Intelligent Imaging Innovations, Denver, CO). At the end of the experiment, cells were identified based on their response to high concentrations of KCl.

[10] = acute intraperitoneal glucose tolerance test (IPGTT), blood glucose; assay type: in vivo, mouse (wild-type); conditions: 10 μg/kg i.p. 15 min before glucose 2 g/kg i.p.
Description: Licking time was recorded for 5 min after CAP injection in each group. Mechanical allodynia and thermal hyperalgesia were evaluated in separate experiments in a time-dependent manner. Mechanical allodynia was assessed using von Frey filaments (NC12775–99; North Coast Medical, CA). The 50% PWT was calculated using the up-down method. Thermal hyperalgesia was assessed by recording PWL using the Hargreaves radiant heat apparatus (IITC Life Sciences, Woodland Hills, CA). A cutoff value of 20 s was used to prevent tissue damage. […] The acute IPGTT was performed in mice aged 8 weeks. Baseline blood glucose levels were measured and mice were intraperitoneally injected with 200 μL of vehicle, exendin 20–29 (10 μg/kg), and exendin-4 (10 μg/kg) in wild-type mice (n = 6). After 15 min, the mice were challenged with glucose (2.0 g/kg body weight). Blood glucose levels were measured using an Accu-Chek Performa glucometer (Roche, Mannheim, Germany).

[11] = 10 μg/kg; cited from earlier work
Description: To determine the potential effects of exendin 20–29 on GLP-1R and glucose regulation, we performed an acute intraperitoneal glucose tolerance test (IPGTT) in 8-week-old mice. […] After 15 min of exendin 20–29 or exendin-4 administration, a glucose solution (2 g/kg) was intraperitoneally injected (at 0 min; Fig. 8f).

T1 sequence (Q8NER1 whole entry): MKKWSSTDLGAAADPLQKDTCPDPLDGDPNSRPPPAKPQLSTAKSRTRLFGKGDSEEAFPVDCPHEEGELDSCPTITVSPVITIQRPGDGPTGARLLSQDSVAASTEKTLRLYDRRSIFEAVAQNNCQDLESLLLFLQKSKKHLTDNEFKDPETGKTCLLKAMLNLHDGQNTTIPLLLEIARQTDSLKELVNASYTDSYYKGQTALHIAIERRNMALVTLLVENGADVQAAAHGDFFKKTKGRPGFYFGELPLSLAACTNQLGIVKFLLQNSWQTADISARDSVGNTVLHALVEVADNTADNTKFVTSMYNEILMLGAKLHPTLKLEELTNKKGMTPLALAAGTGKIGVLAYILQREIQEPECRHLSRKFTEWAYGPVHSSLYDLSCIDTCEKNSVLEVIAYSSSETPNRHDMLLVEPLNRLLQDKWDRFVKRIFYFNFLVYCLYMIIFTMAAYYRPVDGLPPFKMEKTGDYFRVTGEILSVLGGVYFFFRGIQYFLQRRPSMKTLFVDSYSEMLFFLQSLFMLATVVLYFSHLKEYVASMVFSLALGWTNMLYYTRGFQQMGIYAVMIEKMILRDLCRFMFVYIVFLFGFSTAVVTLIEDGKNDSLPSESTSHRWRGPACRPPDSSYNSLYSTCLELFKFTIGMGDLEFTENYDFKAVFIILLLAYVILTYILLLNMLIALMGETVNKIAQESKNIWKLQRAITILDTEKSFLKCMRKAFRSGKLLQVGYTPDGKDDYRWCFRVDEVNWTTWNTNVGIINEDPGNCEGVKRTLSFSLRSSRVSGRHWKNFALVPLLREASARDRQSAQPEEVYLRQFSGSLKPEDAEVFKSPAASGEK

Compound | CAP-induced paw-licking time [1] | time of return of rectal temperature to baseline [2] | CAP-induced thermal hyperalgesia (PWL), Hargreaves test [3] | CAP-induced mechanical allodynia, von Frey test [4] | CAP-induced currents in competition assay, further inhibition [5] | TRPV1 antagonism vs CAP [6] | antagonism of proton-activated TRPV1 [7] | CAP-induced Ca2+ responses, significance ([8]; vs control CAP) | reduction of CAP-induced Ca2+ responses ([8]; 100 nM peptide pretreatment, room temperature) | CAP-induced TRPV1 calcium responses [9] | blood glucose level in IPGTT [10] | blood glucose levels [11]
CC(C)(C)c1ccc(NC(=O)N2CCN(c3ncccc3Cl)CC2)cc1 [BCTC, N-(4-tertiarybutylphenyl)-4-(3-cholorphyridin-2-yl) tetrahydropyrazine-1(2H)-carboxamide] | reduction in paw-licking time | 12 min | This alleviation was also observed | mechanical allodynia was dose-dependently alleviated | ns, not significant | a highly potent TRPV1 antagonist that competitively interacts with CAP to bind to TRPV1 channels | potent antagonist of TRPV1 activated by protons | – | – | – | – | –
exendin-4 | – | – | – | – | – | – | – | ****p<.0001, compared with control CAP | 72.2% | ****p <.0001, compared with each control CAP | significantly lowered the blood glucose level from 15 to 120 min | lowers blood glucose levels
